≈ marks a conversion by molar mass, not a printed value.
Tested on: Enterococcus faecalis ATCC 29212
Assay: MIC testing against Enterococcus faecalis ATCC 29212
Type: cell-based
Conditions: ATCC29212, read-out: MICs against Enterococcus faecalis, Activity
Protocol: Minimum Inhibitory Concentration (MIC) Testing Compounds of this invention were tested for antimicrobial activity by susceptibility testing in liquid or on solid media. MICs for compounds against each strain were determined by the broth microdilution or agar dilution method according to the guidelines of the Clinical Laboratories and Standards Institute, formerly the National Committee for Clinical Laboratory Standards (Clinical Laboratories and Standards Institute. Methods for Dilution Antimicrobial Susceptibility Tests for Bacteria That Grow Aerobically; Approved Standard—Seventh Edition. Document M7-A7. CLSI, Wayne, Pa., 2006; Clinical Laboratories and Standards Institute. Methods for Antimicrobial Susceptibility Testing of Anaerobic Bacteria; Approved Standard—Sixth Edition. Document M11-A6. CLSI, Wayne, Pa., 2004).

Question: `CCNC(=O)Nc1nc2cc(-c3cnc(S(C)(=O)=O)nc3)c(F)cc2s1` [Example 70, 1-ethyl-3-(6-fluoro-5-(2-(methylsulfonyl)pyrimidin-5-yl)benzo[d]thiazol-2-yl)urea] was tested. Which MIC did it give?
Answer: 2 to 16 µg/mL (≈ 5.06 to 40.5 µM)

Question: Which MIC does the source give for `CCNC(=O)Nc1nc2cc(-c3cc(C)n(CCOC)c(=O)c3)ccc2s1` [Example 31, 1-ethyl-3-(5-(1-(2-methoxyethyl)-6-methyl-2-oxo-1,2-dihydropyridin-4-yl)benzo[d]thiazol-2-yl)urea] here?
Answer: 0.25 to 1 µg/mL (≈ 0.647 to 2.59 µM)

Question: Which MIC does the source give for `CCNC(=O)Nc1nc2cc(-c3ccc(CO)nc3)ccc2s1` [Example 9, 1-ethyl-3-(5-(6-(hydroxymethyl)pyridin-3-yl)benzo[d]thiazol-2-yl)urea] here?
Answer: 2 to 16 µg/mL (≈ 6.09 to 48.7 µM)

Question: For `CCNC(=O)Nc1nc2cc(-c3cnc(N4CCC(C(=O)OC)CC4)nc3)c(F)cc2s1` [Example 43, methyl 1-(5-(2-(3-ethylureido)-6-fluorobenzo[d]thiazol-5-yl)pyrimidin-2-yl)piperidine-4-carboxylate], which MIC is on record?
Answer: 0.25 to 1 µg/mL (≈ 0.545 to 2.18 µM)

Question: With `CCNC(=O)Nc1nc2cc(-c3cc(C)n(Cc4cn(C)cn4)c(=O)c3)c(F)cc2s1` [Example 52, 1-ethyl-3-(6-fluoro-5-(6-methyl-1-((1-methyl-1H-imidazol-4-yl)methyl)-2-oxo-1,2-dihydropyridin-4-yl)benzo[d]thiazol-2-yl)urea] as the molecule, how does the MIC read?
Answer: 0.25 to 1 µg/mL (≈ 0.568 to 2.27 µM)

Question: How did the MIC turn out when `CCNC(=O)Nc1nc2cc(-c3cc(C)oc(=O)c3)c(F)cc2s1` [Example 40, 1-ethyl-3-(6-fluoro-5-(6-methyl-2-oxo-2H-pyran-4-yl)benzo[d]thiazol-2-yl)urea] was run?
Answer: 0.25 to 1 µg/mL (≈ 0.72 to 2.88 µM)

Question: `CCNC(=O)Nc1nc2cc(-c3cncc(O)c3)c(F)cc2s1` [Example 59, 1-ethyl-3-(6-fluoro-5-(5-hydroxypyridin-3-yl)benzo[d]thiazol-2-yl)urea] was tested. Which MIC did it give?
Answer: 0.25 to 1 µg/mL (≈ 0.752 to 3.01 µM)

Question: With `CCNC(=O)Nc1nc2cc(-c3cc(C)oc(=O)c3)cnc2s1` [Example 77, 1-ethyl-3-(6-(6-methyl-2-oxo-2H-pyran-4-yl)thiazolo[5,4-b]pyridin-2-yl)urea] as the molecule, how does the MIC read?
Answer: 2 to 16 µg/mL (≈ 6.05 to 48.4 µM)

Question: For `CCNC(=O)Nc1nc2cc(-c3cnc(O)s3)ccc2s1` [Example 23, 1-ethyl-3-(5-(2-hydroxythiazol-5-yl)benzo[d]thiazol-2-yl)urea], which MIC is on record?
Answer: 2 to 16 µg/mL (≈ 6.24 to 49.9 µM)

Question: For `CCNC(=O)Nc1nc2cc(-c3cnc(N4CCCC(C(=O)OC)C4)nc3)c(F)cc2s1` (centres unmarked) [Example 45, methyl 1-(5-(2-(3-ethylureido)-6-fluorobenzo[d]thiazol-5-yl)pyrimidin-2-yl)piperidine-3-carboxylate], which MIC is on record?
Answer: 0.25 to 1 µg/mL (≈ 0.545 to 2.18 µM)

Question: Which MIC does the source give for `CCNC(=O)Nc1nc2cc(-c3ccc4nncn4c3)ccc2s1` [Example 5, 1-(5-([1,2,4]triazolo[4,3-a]pyridin-6-yl)benzo[d]thiazol-2-yl)-3-ethylurea] here?
Answer: 2 to 16 µg/mL (≈ 5.91 to 47.3 µM)

Question: For `CCNC(=O)Nc1nc2cc(-c3ccc(-c4noc(C)n4)nc3)c(F)cc2s1` [Example 55, 1-ethyl-3-(6-fluoro-5-(6-(5-methyl-1,2,4-oxadiazol-3-yl)pyridin-3-yl)benzo[d]thiazol-2-yl)urea], which MIC is on record?
Answer: 0.25 to 1 µg/mL (≈ 0.627 to 2.51 µM)

Question: With `CCNC(=O)Nc1nc2cc(-c3cnc(N4CCC(C(=O)O)CC4)nc3)c(F)cc2s1` [Example 44, 1-(5-(2-(3-ethylureido)-6-fluorobenzo[d]thiazol-5-yl)pyrimidin-2-yl)piperidine-4-carboxylic acid] as the molecule, how does the MIC read?
Answer: < 0.25 µg/mL

Question: Which MIC does the source give for `CCNC(=O)Nc1nc2cc(-c3cc(C)n(CC4CCN(C)C4)c(=O)c3)c(F)cc2s1` (centres unmarked) [Example 50, 1-ethyl-3-(6-fluoro-5-(6-methyl-1-((1-methylpyrrolidin-3-yl)methyl)-2-oxo-1,2-dihydropyridin-4-yl)benzo[d]thiazol-2-yl)urea] here?
Answer: 2 to 16 µg/mL (≈ 4.51 to 36.1 µM)

Question: For `CCNC(=O)Nc1nc2cc(-c3cc[nH]n3)ccc2s1` [Example 17, 1-(5-(1H-pyrazol-3-yl)benzo[d]thiazol-2-yl)-3-ethylurea], which MIC is on record?
Answer: 2 to 16 µg/mL (≈ 6.96 to 55.7 µM)

Question: For `CCNC(=O)Nc1nc2cc(-c3cccnc3)c(C)cc2s1` [Example 73, 1-ethyl-3-(6-methyl-5-(pyridin-3-yl)benzo[d]thiazol-2-yl)urea], which MIC is on record?
Answer: 2 to 16 µg/mL (≈ 6.4 to 51.2 µM)

Question: `CCNC(=O)Nc1nc2cc(-c3ccn(C)c(=O)c3)c(F)cc2s1` [Example 61, 1-ethyl-3-(6-fluoro-5-(1-methyl-2-oxo-1,2-dihydropyridin-4-yl)benzo[d]thiazol-2-yl)urea] was tested. Which MIC did it give?
Answer: 0.25 to 1 µg/mL (≈ 0.722 to 2.89 µM)

Question: For `CCNC(=O)Nc1nc2cc(-c3cnc4ccccn34)ccc2s1` [Example 24, 1-ethyl-3-(5-(imidazo[1,2-a]pyridin-3-yl)benzo[d]thiazol-2-yl)urea], which MIC is on record?
Answer: 2 to 16 µg/mL (≈ 5.93 to 47.4 µM)

Question: Which MIC does the source give for `CCNC(=O)Nc1nc2cc(-c3cc(C)n(CCO)c(=O)c3)ccc2s1` [Example 32, 1-ethyl-3-(5-(1-(2-hydroxyethyl)-6-methyl-2-oxo-1,2-dihydropyridin-4-yl)benzo[d]thiazol-2-yl)urea] here?
Answer: 2 to 16 µg/mL (≈ 5.37 to 43 µM)

Question: Which MIC does the source give for `CCNC(=O)Nc1nc2cc(-c3ccn(C)c(=O)c3)c(C)cc2s1` [Example 74, 1-ethyl-3-(6-methyl-5-(1-methyl-2-oxo-1,2-dihydropyridin-4-yl)benzo[d]thiazol-2-yl)urea] here?
Answer: 0.25 to 1 µg/mL (≈ 0.73 to 2.92 µM)

Question: `CCNC(=O)Nc1nc2cc(-c3ccc(CC(=O)NC)nc3)c(F)cc2s1` [Example 68, 2-{5-[2-(3-ethyl-ureido)-6-fluoro-benzothiazol-5-yl]-pyridin-2-yl}-N-methyl-acetamide] was tested. Which MIC did it give?
Answer: 2 to 16 µg/mL (≈ 5.16 to 41.3 µM)

Question: How did the MIC turn out when `CCNC(=O)Nc1nc2cc(-c3cc(C)n(CC4CCCCN4C)c(=O)c3)c(F)cc2s1` (centres unmarked) [Example 51, 1-ethyl-3-(6-fluoro-5-(6-methyl-1-((1-methylpiperidin-2-yl)methyl)-2-oxo-1,2-dihydropyridin-4-yl)benzo[d]thiazol-2-yl)urea] was run?
Answer: 2 to 16 µg/mL (≈ 4.37 to 35 µM)

Question: With `CCNC(=O)Nc1nc2cc(-c3cccnc3)cnc2s1` [Example 75, 1-ethyl-3-(6-(pyridin-3-yl)thiazolo[5,4-b]pyridin-2-yl)urea] as the molecule, how does the MIC read?
Answer: 2 to 16 µg/mL (≈ 6.68 to 53.4 µM)

Question: Which MIC does the source give for `CCNC(=O)Nc1nc2cc(-c3cnn(CCN4CCOCC4)c3)ccc2s1` [Example 16, 1-ethyl-3-(5-(1-(2-morpholinoethyl)-1H-pyrazol-4-yl)benzo[d]thiazol-2-yl)urea] here?
Answer: 2 to 16 µg/mL (≈ 4.99 to 39.9 µM)

Question: How did the MIC turn out when `CCNC(=O)Nc1nc2cc(-c3cc(C)n(Cc4cccnc4)c(=O)c3)ccc2s1` [Example 34, 1-ethyl-3-(5-(6-methyl-2-oxo-1-(pyridin-3-ylmethyl)-1,2-dihydropyridin-4-yl)benzo[d]thiazol-2-yl)urea] was run?
Answer: 0.25 to 1 µg/mL (≈ 0.596 to 2.38 µM)

Question: For `CCNC(=O)Nc1nc2cc(-c3ccc(CO)nc3)c(F)cc2s1` [Example 65, 1-ethyl-3-(6-fluoro-5-(6-(hydroxymethyl)pyridin-3-yl)benzo[d]thiazol-2-yl)urea], which MIC is on record?
Answer: 0.25 to 1 µg/mL (≈ 0.722 to 2.89 µM)

Question: With `CCNC(=O)Nc1nc2cc(-c3ccn(Cc4ncccc4OC)c(=O)c3)c(F)cc2s1` [Example 79, 1-Ethyl-3-{6-fluoro-5-[1-(3-methoxy-pyridin-2-ylmethyl)-2-oxo-1,2-dihydro-pyridin-4-yl]-benzothiazol-2-yl}-urea] as the molecule, how does the MIC read?
Answer: < 0.25 µg/mL

Question: `CCNC(=O)Nc1nc2cc(-c3cc(C)n(C(C)c4ccccn4)c(=O)c3)ccc2s1` (centres unmarked) [Example 36, 1-ethyl-3-(5-(6-methyl-2-oxo-1-(1-(pyridin-2-yl)ethyl)-1,2-dihydropyridin-4-yl)benzo[d]thiazol-2-yl)urea] was tested. Which MIC did it give?
Answer: 2 to 16 µg/mL (≈ 4.61 to 36.9 µM)

Question: With `CCNC(=O)Nc1nc2cc(-c3ccn(CCN4CCOCC4)c(=O)c3)c(F)cc2s1` [Example 62, 1-ethyl-3-(6-fluoro-5-(1-(2-morpholinoethyl)-2-oxo-1,2-dihydropyridin-4-yl)benzo[d]thiazol-2-yl)urea] as the molecule, how does the MIC read?
Answer: 0.25 to 1 µg/mL (≈ 0.561 to 2.24 µM)

Question: How did the MIC turn out when `CCNC(=O)Nc1nc2cc(-c3cnn(CC(=O)OCC)c3)c(F)cc2s1` [Example 39, ethyl 2-(4-(2-(3-ethylureido)-6-fluorobenzo[d]thiazol-5-yl)-1H-pyrazol-1-yl)acetate] was run?
Answer: 2 to 16 µg/mL (≈ 5.11 to 40.9 µM)

Question: With `CCNC(=O)Nc1nc2cc(-c3ccc(NC(C)=O)nc3)c(F)cc2s1` [Example 38, N-(5-(2-(3-ethylureido)-6-fluorobenzo[d]thiazol-5-yl)pyridin-2-yl)acetamide] as the molecule, how does the MIC read?
Answer: 0.25 to 1 µg/mL (≈ 0.669 to 2.68 µM)

Question: For `CCNC(=O)Nc1nc2cc(-c3cnn(C)c3)ccc2s1` [Example 18, 1-ethyl-3-(5-(1-methyl-1H-pyrazol-4-yl)benzo[d]thiazol-2-yl)urea], which MIC is on record?
Answer: 2 to 16 µg/mL (≈ 6.64 to 53.1 µM)

Question: For `CCNC(=O)Nc1nc2cc(-c3ccn(CCN(C)C)c(=O)c3)c(F)cc2s1` [Example 63, 1-(5-(1-(2-(dimethylamino)ethyl)-2-oxo-1,2-dihydropyridin-4-yl)-6-fluorobenzo[d]thiazol-2-yl)-3-ethylurea], which MIC is on record?
Answer: 2 to 16 µg/mL (≈ 4.96 to 39.7 µM)

Question: `CCNC(=O)Nc1nc2cc(-c3cnc(CO)n3C)ccc2s1` [Example 11, 1-ethyl-3-(5-(2-(hydroxymethyl)-1-methyl-1H-imidazol-5-yl)benzo[d]thiazol-2-yl)urea] was tested. Which MIC did it give?
Answer: 2 to 16 µg/mL (≈ 6.03 to 48.3 µM)

Question: For `CCNC(=O)Nc1nc2cc(-c3ccc4c(=O)c(C(=O)OCC)cn(C)c4c3)ccc2s1` [Example 37, ethyl 7-(2-(3-ethylureido)benzo[d]thiazol-5-yl)-1-methyl-4-oxo-1,4-dihydroquinoline-3-carboxylate], which MIC is on record?
Answer: 2 to 16 µg/mL (≈ 4.44 to 35.5 µM)
